In patent US6355638B1, “Pyrazolo[1,5-d][1,2,4] triazines for enhancing cognition” (Merck Sharp & Dohme Ltd., priority 1999, dated 2002):

Details: not given

Compound	melting point [°C]
Cc1cc(-c2nncc3c(-c4ccccc4)c(OCc4ncn(C)n4)nn23)no1	194 to 196
Cc1cc(-c2nncc3c(Br)c(OCc4ncnn4C)nn23)no1	239 to 241

The next lines start with the values.

melting point [°C]	Compound
161 to 164	Cc1cc(-c2nncc3c(C(C)(C)C)c(OCc4ncn(C)n4)nn23)no1
175 to 178	Cc1cc(-c2nncc3c(C(C)(C)C)c(OCc4ccccn4)nn23)no1
139 to 141	Cc1cc(-c2nncc3c(C(C)(C)C)c(OCc4cccnc4)nn23)no1
119 to 121	Cc1cc(-c2nncc3c(C(C)(C)C)c(OCc4ccncc4)nn23)no1
226 to 228	Cc1cc(-c2nncc3c(-c4ccco4)c(OCc4ncnn4C)nn23)no1

Details: reported in Psychobiology, 21:101-108; cited from earlier work

Compound	spatial learning in the Morris watermaze
COC(=O)c1cc2c(cn1)[nH]c1ccccc12 [β-CCM]	enhanced spatial learning

Details: background statement; cited from earlier work

Compound	proconvulsant activity
COC(=O)c1cc2c(cn1)[nH]c1ccccc12 [β-CCM]	proconvulsant
